Laboratory results published in patent publication US12636322B2, “Bacterial strain with high cellulolytic activity” (INSTITUT NATIONAL SUPERIEUR DES SCIENCES AGRONOMIQUES DE …, priority 2021, dated 2026).

Tested on: F. succinogenes HC4
Test: Phenotypic tests for antibiotic resistance
Assay type: cell-based, Fibrobacter succinogenes
Conditions: liquid filter paper semi-synthetic medium, anaerobic, 48 hours at 38° C.
Description: Eight antibiotics were tested according to EFSA recommendations for Gram-negative bacteria (31). Before being added to the filter paper semi-synthetic medium, the antibiotics were sterilized by filtration (0.22 μm filters). 24-hours cultures of strain HC4 were inoculated into media containing each antibiotic. A positive control without antibiotics was inoculated from the same culture of strain HC4 and two cultures were prepared for each condition. After 48 hours of incubation at 38° C., the observation of filter paper degradation allowed estimating the bacterial growth. In case of no degradation, a sample of liquid was taken and frozen at −20° C. for further determination of succinate production.

Molecule | Concentrations to inhibit growth [mg/L]
NC[C@H]1O[C@H](O[C@H]2[C@H](O)[C@@H](O[C@H]3O[C@H](CO)[C@@H](O)[C@H](N)[C@H]3O)[C@H](N)C[C@@H]2N)[C@H](O)[C@@H](O)[C@@H]1O [Kanamycin] | 8000
CN(C)[C@@H]1C(=O)C(C(N)=O)=C(O)[C@@]2(O)C(=O)C3=C(O)c4c(O)cccc4[C@@](C)(O)[C@H]3C[C@@H]12 [Tetracyclin] | 1
Gentamicin | 128
Colistin | 64
C[C@@H]1O[C@@H]1P(=O)(O)O [Fosfomycin] | 512
[H]/N=C(/N)N[C@H]1[C@H](O)[C@@H](O)[C@H](O[C@@H]2O[C@@H](C)[C@](O)(C=O)[C@H]2O[C@@H]2O[C@@H](CO)[C@H](O)[C@@H](O)[C@@H]2NC)[C@@H](N/C(N)=N\[H])[C@@H]1O [Streptomycin] | 2048
CC1(C)S[C@@H]2[C@H](NC(=O)[C@H](N)c3ccccc3)C(=O)N2[C@H]1C(=O)O [Ampicillin] | 32
